Laboratory results reported in patent US11759461B2, “Small molecule inhibitors of cancer stem cells and mesenchymal cancer types” (The Scripps Research Institute, priority 2017, dated 2023).

The molecules below were run on FOXC2-expressing HMLER cells (assay: Cell Titer Glo viability of FOXC2-HMLER cells (high throughput screen and 10-point response)). Conditions: Homo sapiens; 72-hour incubation; read-out: FOXC2-HMLER IC50.
Assay type: cell-based
Procedure, shortened: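 Viability after 72 h compound exposure was measured as Cell Titer Glo luminescence. FOXC2-HMLER and parental HMLER cells, 1,000 per well in MEGM medium, were dosed 1 h after plating; screening concentration was 2 μM.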

SMILES | IC50 [µM]
COc1cccc2c1C(=O)c1c(O)c3c(c(O)c1C2=O)C[C@@](O)(C(=O)CO)C[C@@H]3O[C@H]1C[C@H](N)[C@H](O)[C@H](C)O1 [doxorubicin, reference compound] | 0.447

Same assay, conditions: Homo sapiens; scored relative to parent compound 4; 72 hours; read-out: Activity Score, inhibition of FOXC2-expressing HMLER cells by Formula IV compounds

SMILES | IC50 [µM]
Cc1c(S(=O)(=O)N2CCCN(c3ccc(=O)n(-c4ccc(F)cc4)n3)CC2)cnn1C(F)F [Compound 4AG] | > 20
Cc1ccc(-n2nc(N3CCCN(S(=O)(=O)c4cnn(C(F)F)c4C)CC3)ccc2=O)cc1C [Compound 4AH] | > 20
Cc1ccc(-n2nc(N3CCCN(S(=O)(=O)c4cnn(C(F)F)c4C)CC3)ccc2=O)cc1 [Compound 4AI] | > 20
Cc1c(S(=O)(=O)N2CCN(c3ccc(=O)n(-c4ccc(F)cc4)n3)CC2)cnn1C(F)F [Compound 4AJ] | > 20
Cc1ccc(-n2nc(N3CCN(S(=O)(=O)c4cnn(C(F)F)c4C)CC3)ccc2=O)cc1C [Compound 4AK] | > 20
Cc1c(S(=O)(=O)N2CCN(c3ccc(=O)n(-c4ccccc4)n3)CC2)cnn1C(F)F [Compound 4AL] | > 20
Cc1c(S(=O)(=O)N2CCN(c3ccc(=O)n(-c4ccc(Cl)cc4)n3)CC2)cnn1C(F)F [Compound 4AM] | > 20
Cc1c(S(=O)(=O)N2CCN(C)c3ccccc32)cnn1C(F)F [Compound 4AN] | > 20
Cc1nn(-c2ccc(-c3ccccc3)nn2)c(C)c1S(=O)(=O)N1CCN(c2ccccc2)CC1 [Compound 4AO] | > 20
Cc1nn(-c2ccc(-c3ccccc3)nn2)c(C)c1S(=O)(=O)N1CCN(c2ccccn2)CC1 [Compound 4AP] | > 20
Cc1cccc(N2CCN(S(=O)(=O)c3c(C)nn(-c4ccc(-c5ccccc5)nn4)c3C)CC2)c1 [Compound 4AQ] | > 20
Cc1ccccc1N1CCN(S(=O)(=O)c2c(C)nn(-c3ccc(-c4ccccc4)nn3)c2C)CC1 [Compound 4AR] | > 20
Cc1ccc(N2CCN(S(=O)(=O)c3c(C)nn(-c4ccc(-c5ccccc5)nn4)c3C)CC2)cc1 [Compound 4AS] | > 20
Cc1ccc(-c2ccc(-n3nc(C)c(S(=O)(=O)N4CCN(c5ccccc5)CC4)c3C)nn2)cc1 [Compound 4AT] | > 20
Cc1ccc(-c2ccc(-n3nc(C)c(S(=O)(=O)N4CCN(C(C)C)CC4)c3C)nn2)cc1 [Compound 4AU] | > 20
Cc1c(S(=O)(=O)N2CCN(c3cc(-c4cccc(F)c4)ncn3)CC2)cnn1C(F)F [Compound 4A] | < 1
Cc1ccccc1-c1cc(N2CCN(S(=O)(=O)c3cnn(C(F)F)c3C)CC2)ncn1 [Compound 4B] | < 1
COc1cccc(-c2cc(N3CCN(S(=O)(=O)c4cnn(C(F)F)c4C)CC3)ncn2)c1 [Compound 4C] | < 1
Cc1ccc(C)c(N2CCN(S(=O)(=O)c3c(C)nn(C)c3C)CC2)c1 [Compound 4D] | < 1
Cc1ccc(-c2cc(N3CCN(S(=O)(=O)c4ccccc4C)CC3)ncn2)cc1 [Compound 4E] | < 1
Cc1cccc(N2CCN(S(=O)(=O)c3c(C)nn(-c4ccc(F)cc4)c3C)CC2)c1C [Compound 4F] | < 1

SMILES | IC50 [µM]
Cc1nn(-c2ccc(Cl)cc2)c(C)c1S(=O)(=O)N1CCN(c2ccccn2)CC1 [Compound 4G] | < 1
CC(=O)c1ccc(N2CCN(S(=O)(=O)c3c(C)nn(-c4ccc(C)cc4)c3C)CC2)cc1 [Compound 4H] | < 1
Cc1cccc(-c2cc(N3CCN(S(=O)(=O)c4ccccc4C)CC3)ncn2)c1 [Compound 4I] | 1 to 20
Cc1nn(-c2ccccc2)c(C)c1S(=O)(=O)N1CCN(c2ccccn2)CC1 [Compound 4J] | 1 to 20
Cc1nn(-c2ccc(F)cc2)c(C)c1S(=O)(=O)N1CCN(c2ncccn2)CC1 [Compound 4K] | 1 to 20
Cc1ccc(-n2nc(C)c(S(=O)(=O)N3CCN(c4ccccc4)CC3)c2C)cc1 [Compound 4L] | 1 to 20
Cc1ccc(-n2nc(C)c(S(=O)(=O)N3CCN(c4ncccn4)CC3)c2C)cc1 [Compound 4M] | 1 to 20
Cc1nn(C)c(C)c1S(=O)(=O)N1CCN(c2cccc(Cl)c2)CC1 [Compound 4N] | > 20
Cc1cccc(N2CCN(S(=O)(=O)c3c(C)nn(C)c3C)CC2C)c1 (stereo not drawn) [Compound 4O] | > 20
Cc1nn(C)c(C)c1S(=O)(=O)N1CCN(c2ccccc2F)CC1 [Compound 4P] | > 20
Cc1nn(C)c(C)c1S(=O)(=O)N(CC(=O)N1CCN(c2ncccn2)CC1)c1ccc(C(C)C)cc1 [Compound 4Q] | > 20
Cc1cccc(-c2cc(N3CCN(S(=O)(=O)c4ccc(C)cc4C)CC3)ncn2)c1 [Compound 4R] | > 20
Cc1cccc(-c2cc(N3CCN(S(=O)(=O)c4cnn(C(F)F)c4C)CC3)ncn2)c1 [Compound 4S] | > 20
Cc1c(S(=O)(=O)N2CCN(c3cc(-c4ccc(F)cc4)ncn3)CC2)cnn1C(F)F [Compound 4T] | > 20
Cc1ccc(-c2cc(N3CCN(S(=O)(=O)c4ccc(C)cc4C)CC3)ncn2)cc1 [Compound 4U] | > 20
Cc1ccccc1S(=O)(=O)N1CCN(c2cc(-c3ccccc3)ncn2)CC1 [Compound 4V] | > 20
Cc1ccc(S(=O)(=O)N2CCN(c3cc(-c4ccccc4)ncn3)CC2)c(C)c1 [Compound 4W] | > 20
Cc1c(S(=O)(=O)N2CCN(c3cc(-c4ccccc4)ncn3)CC2)cnn1C(F)F [Compound 4X] | > 20
COc1ccc(-c2cc(N3CCN(S(=O)(=O)c4cnn(C(F)F)c4C)CC3)ncn2)cc1 [Compound 4Y] | > 20
COc1ccc(F)cc1-c1cc(N2CCN(S(=O)(=O)c3cnn(C(F)F)c3C)CC2)ncn1 [Compound 4Z] | > 20
Cc1ccc(-c2cc(N3CCN(S(=O)(=O)c4cnn(C(F)F)c4C)CC3)ncn2)cc1 [Compound 4] | < 1

Each molecule was assayed on control HMLER cells (assay: Cell Titer Glo viability of control HMLER cells). Conditions: Homo sapiens; 72-hour incubation; read-out: control HMLER IC50.
Assay type: cell-based
Text: An engineered cancer cell line HMLER as an isogenic screening system was employed to identify compounds that are selectively toxic to the FOXC2 positive genotype. HMLER cells are derived from mammary epithelial cells (HMECs), but are virally transformed with the […] oncogene (G12V), human telomerase reverse transcriptase (hTERT), and SV40 large-T antigen (B. Elenbaas, B. et al. Genes Dev. 15 (2001) 50-65). Expression of these genes endows HMLER cells with functional immortality and tumorigenic potential at high seeding number (>10^6 cells; Hollier (2013)). […]
For high throughput screening, FOXC2-HMLER and HMLER cells were plated at 10^3 cells per well in white 384-well plates in 50 μL of MEGM medium (Lonza). […] After 72-hour incubation, 30 μL of a Cell Titer Glo solution (diluted 1:6 in water, Promega) was dispensed into each well and luminance values were recorded using an Envision plate reader. […]
More specifically, in the high throughput screening assay above, each cell line was plated at 1,000 cells per well in 384-well plates, treated for 72 hours with 2 μM of test compound, and the viability of each line was determined in parallel by Cell Titer Glo (Promega) luminance measurements. […]

SMILES | IC50 [µM]
COc1cccc2c1C(=O)c1c(O)c3c(c(O)c1C2=O)C[C@@](O)(C(=O)CO)C[C@@H]3O[C@H]1C[C@H](N)[C@H](O)[C@H](C)O1 [doxorubicin, reference compound] | 0.267

These molecules were tested against T1, recombinant full length VIM (Homo sapiens, UniProt P08670) (assay: In vitro photo-affinity labeling of recombinant proteins with 1-PAP). Conditions: VIM vs Peripherin, GFAP, Desmin recombinant preparations.
T1 construct: 1-PAP labels recombinant full length VIM in vitro
T1 sequence (P08670 whole entry): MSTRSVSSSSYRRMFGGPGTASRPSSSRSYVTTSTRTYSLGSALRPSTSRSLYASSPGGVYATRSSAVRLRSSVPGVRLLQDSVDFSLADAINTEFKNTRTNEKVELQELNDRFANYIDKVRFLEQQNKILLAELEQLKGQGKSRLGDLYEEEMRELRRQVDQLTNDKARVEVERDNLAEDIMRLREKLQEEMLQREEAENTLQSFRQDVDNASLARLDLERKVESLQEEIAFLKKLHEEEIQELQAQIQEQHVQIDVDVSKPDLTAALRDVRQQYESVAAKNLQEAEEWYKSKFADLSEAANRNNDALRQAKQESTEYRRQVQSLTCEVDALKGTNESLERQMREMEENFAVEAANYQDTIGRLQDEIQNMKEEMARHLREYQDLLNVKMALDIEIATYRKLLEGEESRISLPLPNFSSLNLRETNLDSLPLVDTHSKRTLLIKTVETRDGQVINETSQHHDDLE
Assay type: binding
Protocol: To identify the relevant cellular target of Compound 1, we incubated live FOXC2-HMLER cells with 2.5 μM 1-PAP, as prepared in Example 5, for 15 minutes and subjected these cells to UV irradiation. A sample containing both 1-PAP and a 20-fold molar excess of free Compound 1 was used to distinguish specific labeling events.
VIM consists of a long rod domain, which forms a coiled coil in the presence of other VIM molecules, as well as head and tail domains. To identify which portion of the protein was the relevant site of 1-PAP labeling, we expressed these domains as GST fusion proteins. […] VIM is one of four type III intermediate filament proteins, whose members additionally include Peripherin, glial fibrillary acidic protein (GFAP), and Desmin, which share 59%, 61%, and 62% sequence similarity to VIM respectively (SIM alignment, ExPASy) (E. Fuchs et al., Annu. Rev. Biochem. 63 (1994) 345-382).

labeling of type III intermediate filament proteins | SMILES
labeled VIM exclusively | CC1(CC[C@H](NC(=O)CCOCCOCCNC(=O)CCCC[C@@H]2SC[C@@H]3NC(=O)N[C@@H]32)C(=O)NCCOCCOCCOc2cc(Cl)cc(N3CCN(c4cnnc5c(Cl)cccc45)CC3)c2)N=N1 [Compound 1-PAP, N—((S)-1-(3-chloro-5-(4-(8-chlorocinnolin-4-yl)piperazin-1-yl)phenoxy)-11-(2-(3-methyl-3H-diazirin-3-yl)ethyl)-10,13-dioxo-3,6,16,19-tetraoxa-9,12-diazahenicosan-21-yl)-5-((3aS,4S,6aR)-2-oxohexahydro-1H-thieno[3,4-d]imidazol-4-yl)pentanamide]

Same assay, conditions: head, rod and tail domains

SMILES | labeling of VIM domains expressed as GST fusion proteins
CC1(CC[C@H](NC(=O)CCOCCOCCNC(=O)CCCC[C@@H]2SC[C@@H]3NC(=O)N[C@@H]32)C(=O)NCCOCCOCCOc2cc(Cl)cc(N3CCN(c4cnnc5c(Cl)cccc45)CC3)c2)N=N1 [Compound 1-PAP, N—((S)-1-(3-chloro-5-(4-(8-chlorocinnolin-4-yl)piperazin-1-yl)phenoxy)-11-(2-(3-methyl-3H-diazirin-3-yl)ethyl)-10,13-dioxo-3,6,16,19-tetraoxa-9,12-diazahenicosan-21-yl)-5-((3aS,4S,6aR)-2-oxohexahydro-1H-thieno[3,4-d]imidazol-4-yl)pentanamide] | binds specifically and potently to the rod domain of VIM

Each molecule was assayed on FOXC2-HMLER cells (assay: Confocal imaging of thymidine synced FOXC2-HMLER cells at metaphase). Conditions: not given.
Assay type: cell-based, human
Text: Because Compound 1 induces a hyper-phosphorylated VIM phenotype, we sought to determine if Compound 1's engagement of VIM might interfere at an alternative stage of mitosis. We therefore performed time course confocal imaging studies of Compound 1 treated FOXC2-HMLER cells after their release from thymidine blocking-based cell cycle synchronization.
Compound 1 treatment also disrupted the ability of β-tubulin to faithfully form the fine spindle microtubules of the mitotic spindle, instead resulting in a compressed phenotype with radiating projections connecting unaligned chromosomes. To assess the uniqueness of this phenotype, we evaluated the metaphase phenotypes of other chemical inhibitors which have shown to alter mitotic progression. These included inhibitors of centromere-associated protein E (CENP-E, also called kinesin-7, GSK92395), kinesin spindle protein (KSP, also called Eg5, Ispinesib), polo like kinases (PLK1/2/3, BI2536), and aurora kinases (AURKA/B/C, VX-680).

SMILES | VIM filamentous structure at metaphase | chromosome alignment to the metaphase plate
CC(C)Oc1ccc(C(=O)N[C@H](CNC(=O)CN(C)C)Cc2ccc(-c3cn4cccc([C@H](C)O)c4n3)cc2)cc1Cl [GSK92395] | did not induce VIM filamentous collapse | unaligned chromosome phenotype
